What was measured:
purified TrVKORL = target: T1, purified TrVKORL (Takifugu rubripes, UniProt Q6TEK8); test: Fluorometric activity assay of purified TrVKORL; format: biochemical
T1 sequence (Q6TEK8 1-175): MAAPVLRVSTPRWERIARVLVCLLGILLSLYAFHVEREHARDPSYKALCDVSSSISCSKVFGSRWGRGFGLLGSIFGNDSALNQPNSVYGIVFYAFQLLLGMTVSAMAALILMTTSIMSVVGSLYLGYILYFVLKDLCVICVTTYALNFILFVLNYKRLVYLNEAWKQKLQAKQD

hVKORL = target: T2, hVKORL (Homo sapiens, UniProt Q8N0U8); test: Cell-based activity assay
T2 sequence (Q8N0U8 1-176): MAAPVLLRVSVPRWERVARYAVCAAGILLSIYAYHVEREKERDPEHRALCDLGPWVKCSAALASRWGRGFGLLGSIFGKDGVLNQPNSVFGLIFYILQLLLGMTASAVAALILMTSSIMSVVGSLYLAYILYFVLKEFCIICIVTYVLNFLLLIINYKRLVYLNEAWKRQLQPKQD

purified hVKORL = target: T3, purified hVKORL (Homo sapiens, UniProt Q8N0U8); test: Fluorometric activity assay of purified hVKORL; format: biochemical; conditions: IC50, purified and analyzed in LMNG, GSH, 250 nM enzyme, KO as substrate
T3 sequence (Q8N0U8 1-176): T2 sequence (Q8N0U8 1-176)

[1] = target: purified complex of hVKOR and warfarin (Homo sapiens, UniProt Q9BQB6); conditions: DTT as reductant
purified complex of hVKOR and warfarin, sequence (Q9BQB6 whole entry, one chain of several): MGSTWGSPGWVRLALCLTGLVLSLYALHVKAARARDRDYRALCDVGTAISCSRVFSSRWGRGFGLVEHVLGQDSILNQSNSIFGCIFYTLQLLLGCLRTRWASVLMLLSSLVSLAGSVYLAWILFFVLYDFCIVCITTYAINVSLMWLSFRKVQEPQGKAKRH

[2] = target: T4, Takifugu rubripes VKOR-like (TrVKORL) (Takifugu rubripes, UniProt Q6TEK8); test: Cell-based activity assay
T4 sequence (Q6TEK8 1-175): T1 sequence (Q6TEK8 1-175)

| SMILES | decrease of KM with GSH reduction compared to DTT reduction (purified TrVKORL; TrVKORL, KO as substrate) [fold] | IC50 (hVKORL) [nM] | IC50 (purified TrVKORL; IC50 of warfarin, in presence of GSH, enzyme concentration 500 nM, KO or K) [nM] | Ki (purified TrVKORL; Ki^app estimated from the Morrison equation, GSH, K as substrate, low enzyme concentration) [nM] | IC50 (purified TrVKORL; apparent IC50, GSH as reductant, 500 nM TrVKORL, K as substrate) [nM] | IC50 (purified TrVKORL; apparent IC50, GSH as reductant, 500 nM TrVKORL, KO as substrate) [nM] | IC50 (purified TrVKORL; warfarin IC50, DTT as reductant, 500 nM enzyme, K as substrate) [nM] | IC50 (purified TrVKORL; warfarin IC50, DTT as reductant, 500 nM enzyme, KO as substrate) [nM] | IC50 (purified hVKORL) [nM] | warfarin inhibition (in words) [1] | IC50 [2] [nM] |
| --- | --- | --- | --- | --- | --- | --- | --- | --- | --- | --- | --- |
| CC(=CCC12OC1(C)C(=O)c1ccccc1C2=O)CCCC(C)CCCC(C)CCCC(C)C (centres unmarked) [KO, vitamin K epoxide] | 3.4 | – | – | – | – | – | – | – | – | – | – |
| CC(=O)CC(c1ccccc1)c1c(O)c2ccccc2oc1=O (centres unmarked) [warfarin] | – | 238 | 250 to 260 | 29 | ~250 | ~260 | 3800 | 4700 | 120 | poorly inhibited | 97 |

Source: PMC7484342 (Journal of molecular biology, 2020)
